# Publication PMC12040169 (PLOS Biology, 2025)
# Assay: in vitro
# Conditions: human, hela cells
row,Compound,"viability at 28.5 h, 10 µM"
1,CNC(=O)Oc1ccc(C)cc1C(=O)N(C)C [CBK012319],111%
2,CN(C)[C@@H]1C[C@H](C2(c3ccccc3)OCCO2)CC[C@H]1N(C)C(=O)Cc1ccc(Cl)c(Cl)c1 [CBK016338],87.8%

# Same assay, conditions: human, hela cells, % viability
row,Compound,"viability at 28.5 h, 10 µM"
1,CC(=O)Nc1ccc(-c2ccc(C(=O)NCc3ccc(S(C)(=O)=O)cc3)cn2)cc1 [CBK158860],92.1%
2,COc1ccccc1-c1ccc(CC2(C(=O)NCC3CCCCC3)CCOCC2)cc1 [CBK286519],98.5%
3,Cc1ccc(CNC(=O)CSc2nnc(-c3ccncc3)n2-c2ccccc2)cc1 [CBK266654],102%
4,O=C(O)C1CCCCC1C(=O)N1CCN(Cc2cccc3ccccc23)CC1 (stereo not drawn) [CBK270293],91.2%
5,CC(C)NC(=O)CN1CCN(Cc2nc(-c3cccc(Cl)c3)no2)CC1 [CBK304369],100%
6,CCOC(=O)N1CCC(NC(=O)N2CCN(c3cc(C(F)(F)F)ccn3)CC2)CC1 [CBK162353],103%
7,CC(C)C1c2cccn2CCN1S(=O)(=O)c1ccc2[nH]c(=O)[nH]c(=O)c2c1 (stereo not drawn) [CBK286391],99.6%
8,Cn1ccc(C(=O)NCc2cccnc2OCC(F)(F)F)cc1=O [CBK305574],99.9%
9,CC(=O)NCCCCCC(=O)Nc1ccc(C(=O)O)cc1 [CBK287241],101%
10,O=C(CSc1nnc(-c2cccnc2)n1-c1ccc(Br)cc1)Nc1ccc2c(c1)OCO2 [CBK266153],93.8%
11,Cc1cnc(CNC(=O)N(CCC#N)C2CCCCC2)cn1 [CBK156352],96.5%
12,CC(=O)Nc1cccc(CN(CCCO)C2CCc3ccccc32)c1 (stereo not drawn) [CBK304011],95%
13,NC(=O)c1cnn(-c2cc(Oc3ccccc3)ncn2)c1N [CBK098664],105%
14,O=C(CN1CCC(c2nc3ccccc3[nH]2)CC1)Nc1ccc(F)cc1 [CBK287720],90%
15,CN(C)CC1CCCCN1C(=O)C1CC2C=CC1C21CC1 (stereo not drawn) [CBK282085],86.6%
16,O=C(c1ccc2[nH]c(=O)[nH]c2c1)N1CCC(Cn2cncn2)(C2CCCCC2)CC1 [CBK136824],104%
17,CC(C)C(NS(=O)(=O)c1ccc(I)cc1)C(=O)O (stereo not drawn) [CBK268703],106%
18,CCOCC(=O)N(C)C1CCN(c2ncnc3ccccc23)CC1 [CBK306247],89.1%
19,CC(C)NCC(O)Cn1c2c(c3ccccc31)CCc1c-2cnn1-c1ccccc1 (stereo not drawn) [CBK261107],99.6%
20,CN1CCC(N(C)C(=O)NCc2c(Cl)cccc2Cl)C1 (stereo not drawn) [CBK156014],99%
21,CS(=O)(=O)Nc1cc2ccccc2c(-c2ccsc2)n1 [CBK085748],89.7%
22,CNC(=O)c1ccc(-c2ccc3[nH]ccc3c2)nc1N(C)C [CBK106146],90.9%

row,Compound,"viability at 28.5 h, 10 µM"
1,O=C(NCc1ccccc1)c1ccc2[nH]c(=O)c(-c3ccccc3)c(O)c2c1 [CBK160318],84%
2,N#CC1=C(Nc2ccccc2)Oc2cc(N)ccc2C1c1cccnc1 (stereo not drawn) [CBK269435],100%
3,COc1cc(/C=N/NC(=O)c2ccncc2)ccc1OCc1ccc(Cl)cc1 [CBK262454],114%
4,C=C(C)CN1CCN(Cc2cnn(C3CCCCC3)c2)CC1 [CBK282828],98.9%
5,COc1cc([C@@]23CC[C@@H](NC(=O)Nc4ccc(F)c(F)c4)C[C@@H]2N(C)CC3)ccc1O [CBK049958C],90.3%
6,CC(=O)c1ccc(-c2nc(-c3ccc(Cl)cc3)cnc2N)cc1 [CBK064097],89.6%
7,O=c1c2ccsc2ncn1Cc1nnc(-c2ccc(Br)o2)o1 [CBK295642],88.7%
8,O=C(Nc1ccccc1Cl)C1CCCN1S(=O)(=O)c1ccc(F)cc1 (stereo not drawn) [CBK110161],89.1%
9,CCOC(=O)C1(Cc2cc(-c3ccccc3F)no2)CCCNC1 (stereo not drawn) [CBK284577],85.2%
10,O=C(Nc1ccc(NC(=O)C2CC=CCC2C(=O)O)cc1Cl)C1CCCCC1 (stereo not drawn) [CBK268772],89.7%
11,CC(N)C1CCCN(S(=O)(=O)c2ccc(OCc3ncnn3C)cc2)C1 (stereo not drawn) [CBK304105],114%
12,Cc1cc2ccccc2n2c(=O)n(CC(=O)NC3CCCC3)nc12 [CBK283884],79.7%
13,Cc1cc2c(cc1Cl)C(=O)CC1(CCNCC1)O2 [CBK282715],83.1%
14,O=C(c1ccc(COc2ccc(I)cc2)cc1)N1CCCCCC1 [CBK058852],83.4%
15,CC1CN(C(=O)c2ccccc2-c2ccccc2C(=O)O)CC(C)O1 (stereo not drawn) [CBK286577],87.7%
16,CC(C)(C)OC(=O)n1cccc1-c1cncc(-c2ccc(C(=O)N3CCOCC3)cc2)n1 [CBK138520],100%
17,CN(C)CCN1CCN(c2cccc(-c3ccc(-c4ccccc4)cc3)n2)CC1 [CBK037610],103%
18,CCC(CO)NC(=O)c1cnc(-c2cccc(C)c2)c(-c2ccc(OC)cc2)c1 (stereo not drawn) [CBK037460],101%
19,Cc1ccc(C(C)C(=O)N2CCC(O)(Cn3ccnc3C)CC2)cc1 (stereo not drawn) [CBK284660],83.8%
20,CS(=O)(=O)Nc1cc2ccccc2c(-c2ccc(OC(F)(F)F)cc2)n1 [CBK085757],121%
21,CC(NC(=O)c1ncoc1-c1ccc(F)cc1)c1ccncc1 (stereo not drawn) [CBK282319],100%
22,CCc1nnc2sc(-c3ccc(C)c(NC(=O)c4ccc(N5CCCCC5)c([N+](=O)[O-])c4)c3)nn12 [CBK268476],91.5%

row,Compound,"viability at 28.5 h, 10 µM"
1,O=C(O)c1ccc(CN2CCC3(C/C=C/CNC(=O)c4ccccc4OCCNC3=O)CC2)cc1 [CBK292002],109%
2,Cn1nccc1CCNS(=O)(=O)c1cccc(C(=O)N2CCCCC2)c1 [CBK307086],89.2%
3,CCCSc1ncc(Cl)c(C(=O)Nc2ccc(S(=O)(=O)N3CC(C)OC(C)C3)cc2)n1 (stereo not drawn) [CBK269055],100%
4,Cc1ccccc1C1(O)CCN(CC(O)c2ccc(F)cc2)CC1 (stereo not drawn) [CBK282471],87.7%
5,COc1ccc(-c2cc(C(=O)NCC(O)c3ccc4ccccc4c3)cnc2-c2ccccc2)cn1 (stereo not drawn) [CBK037562],103%
6,COCCn1c(CO)nnc1[C@H]1C[C@@H](NC(=O)c2cc(C)ccc2Cl)C1 [CBK306564],81.2%
7,CS(=O)(=O)Nc1cc2cccnc2nc1-c1ccccc1 [CBK085689],104%
8,Cc1ccccc1OC(C)C(=O)NCCCc1ccccc1 (stereo not drawn) [CBK268571],88.3%
9,O=C(c1cccnc1)N1CCCC2(CCN(C(=O)c3ccoc3)C2)C1 (stereo not drawn) [CBK131640],97%
10,NC[C@H]1CC[C@H](C(=O)NCC2CCCN(Cc3ccccc3)C2)CC1 (stereo partly drawn) [CBK282764],89.6%
11,CC(=O)NCCn1cc2c(n1)[C@H]1CN(C(=O)C(C)(C)C)C[C@H]1CC2 [CBK282168],102%
12,CC(=O)Nc1ccc(-c2nc3ccc(-c4ccc5nc(-c6ccc(NC(C)=O)cc6)oc(=O)c5c4)cc3c(=O)o2)cc1 [CBK261391],107%
13,CN(C(=O)c1ccco1)c1nc2c(s1)CCc1c-2cnn1C [CBK281928],81.2%
14,Cc1n[nH]c(C)c1CNC(=O)c1cccc2c(C)c(C)[nH]c12 [CBK283068],88.9%
15,Nc1nnc(SCc2nc(=O)c3ccccc3[nH]2)s1 [CBK270059],92.2%
16,CC(NC(=O)CCc1cnn(C)c1)c1cccc(-n2ccnc2)c1 (stereo not drawn) [CBK306139],97.3%
17,O=C(C1CCCCC1)N1CCCC(c2cc3cccnc3[nH]2)C1 (stereo not drawn) [CBK284938],98.4%
18,COc1cccc(C(=O)c2snc(Nc3ccc(F)cc3)c2N)c1 [CBK269173],117%
19,CCCc1n[nH]c(=S)n1CC(=O)NCc1ccc(OCCC(C)C)c(OC)c1 [CBK297743],84.4%
20,N#Cc1ccc(NC(=O)NCCc2cccs2)cc1 [CBK043736],115%
21,O=C(Nc1cnccn1)c1ccc(Cl)cc1Cl [CBK056922],85.5%
22,Nc1cc2cccnc2nc1-c1cccnc1 [CBK067602],84.8%

row,Compound,"viability at 28.5 h, 10 µM"
1,C#CCn1c(=O)n(C)n(C)c1=O [CBK023151],89.4%
2,CN(Cc1cc(Br)cs1)C(=O)CCN1C(=O)COc2ccccc21 [CBK298308],90%
3,CC1=C[C@@H](CNC(=O)c2ccncc2)[C@H](C(C)C)C[C@H]1CC(=O)N1CCOCC1 [CBK289052],80.2%
4,CCCS(=O)(=O)Nc1nccnc1N1CCN(c2cnccn2)CC1 [CBK048828],85.5%
5,CCC(CC)(CC(=O)Nc1ccc(N2CCCC2=O)c(C)c1)C(=O)O [CBK297881],101%
6,CCCc1ccc(S(=O)(=O)NCC(=O)OCC)cc1 [CBK034429],113%
7,O=C1NCC2(C/C=C/CCOc3ccccc31)CCN(C(=O)CCN1CCCC1)CC2 [CBK292020],87.5%
8,COc1ccccc1-c1nc(C2CCCN2C(=O)CCCC(=O)O)n2ccccc12 (stereo not drawn) [CBK046600],90.3%
9,NCCNCCNCCN [CBK023985C],93.2%
10,Cc1cc(O)c(C(C)C)cc1N1C(=O)c2ccc([N+](=O)[O-])cc2C1=O [CBK115323],97.7%
11,Cc1cc(C)n(CC(=O)N2CCC(c3cc4cccnc4[nH]3)CC2)n1 [CBK284999],91.3%
12,CN1CCCCC1CC(=O)Nc1ccc2ncn(C)c2c1 (stereo not drawn) [CBK281747],87.6%
13,O=C(CC1CCS(=O)(=O)C1)NC1(c2ccc(Cl)cc2)CC1 (stereo not drawn) [CBK282773],97.6%
14,COC(=O)c1cc(CN2CCCN(S(=O)(=O)c3ccc(C(=O)c4ccccc4)cc3)CC2)cn1C [CBK062770],97.2%
15,O=c1[nH]cc(S(=O)(=O)N2CCN(Cc3ccccc3Cl)CC2)c(=O)[nH]1 [CBK285889],97.1%
16,Cc1nc(-c2ccccc2)sc1C(=O)C1=C(O)C(=O)N(CCN2CCOCC2)C1c1ccccc1F (stereo not drawn) [CBK266511],103%
17,COC(=O)C(O)(CC(=O)Nc1ccc(C)c(F)c1)C(F)(F)F (stereo not drawn) [CBK267440],103%
18,COCCn1c(CN2CCC(Cc3ccccc3)CC2)nc2c1c(=O)n(C)c(=O)n2C [CBK269378],99.1%
19,CC(=O)N[C@H]1CO[C@H]2[C@@H]1OC[C@@H]2Nc1nccc(-c2cccc(F)c2)n1 [CBK289534],99.3%
